Experimental data: ChEMBL document CHEMBL5108027, “An unanticipated discovery of novel naphthalimidopropanediols as potential broad-spectrum antibacterial members” (Eur J Med Chem, 2022)
≈ marks a conversion by molar mass, not a printed value. Calls of active or inactive are those of the source. The calls are words filed in the database; no cut-off is given here.

Experiments:
Pseudomonas aeruginosa [1] = experiment: Antibacterial activity against Pseudomonas aeruginosa ATCC 27853 measured by Muller-Hinton broth based microdilution assay; type: functional
Staphylococcus aureus [2] = experiment: Antibacterial activity against Staphylococcus aureus assessed as reduction in LDH activity at 1 to 8 times MIC measured after 6 hrs by microplate reader method; type: functional; design: scale not given: the % may be the effect or the level left
Staphylococcus aureus [3] = experiment: Antibacterial activity against methicillin-resistant Staphylococcus aureus N315 measured by Muller-Hinton broth based microdilution assay; type: functional
Acinetobacter baumannii = experiment: Antibacterial activity against Acinetobacter baumannii measured by Muller-Hinton broth based microdilution assay; type: functional
[4] = Hemolytic activity in human RBC measured after 1 hr; type: toxicity, cell-based, Erythrocyte; settings: human red blood cells (erythrocytes)
Staphylococcus aureus [5] = experiment: Inhibition of bacterial growth of Staphylococcus aureus at 1 to 2 times MIC; type: functional
Staphylococcus aureus [6] = experiment: Antibacterial activity against Staphylococcus aureus measured after 16 passages by resistance development assay; type: functional, organism-based
Staphylococcus aureus [7] = experiment: Induction of inner membrane permeabilization in Staphylococcus aureus by measuring increase in fluorescence intensity at 1 to 8 times MIC by calcein-AM/PI staining based fluorescence analysis; type: functional, organism-based
Staphylococcus aureus [8] = experiment: Disruption of membrane integrity in Staphylococcus aureus assessed as increase in protein leakage by measuring increase in absorbance 1 to 8 times MIC measured for 6 hrs by Bradford assay; type: functional, organism-based
Staphylococcus aureus [9] = experiment: Antibacterial activity against Staphylococcus aureus measured by Muller-Hinton broth based microdilution assay; type: functional
Enterococcus faecalis = experiment: Antibacterial activity against Enterococcus faecalis measured by Muller-Hinton broth based microdilution assay; type: functional
Staphylococcus aureus [10] = experiment: Induction of membrane depolarization in Staphylococcus aureus at 0.5 to 2 times MIC measured upto 1 hr by DiSC35 dye-based fluorescence assay; type: functional, organism-based
Escherichia coli [11] = experiment: Antibacterial activity against Escherichia coli assessed as deformed and shriveled cell structures at 8 to 16 ug/ml measured by SEM analysis; type: functional, organism-based; settings: dose 8-16 µg/ml
Staphylococcus aureus [12] = experiment: Antibacterial activity against Staphylococcus aureus assessed as reduction in metabolic activity at 1 to 8 times MIC measured after 6 hrs by Alamar blue assay; type: functional, organism-based
Staphylococcus aureus [13] = experiment: Disruption of membrane integrity in Staphylococcus aureus assessed as increase in nucleic acid leakage by measuring increase in absorbance 1 to 8 times MIC measured for 6 hrs by spectrophotometry; type: functional, organism-based
Pseudomonas aeruginosa [14] = experiment: Antibacterial activity against Pseudomonas aeruginosa measured by Muller-Hinton broth based microdilution assay; type: functional
[15] = Hemolytic activity in human RBC assessed as hemolytic rate at 2 to 512 ug/ml and measured after 1 hr; type: toxicity, cell-based, Erythrocyte; settings: human red blood cells (erythrocytes), at 2 to 512 µg/mL, dose 2-512 µg/ml, read-out: Activity
[16] = Toxicity in systemic sepsis mouse model infected with Staphylococcus aureus assessed as effect on liver morphology at 2.5 to 5 mg/kg administered every 12 hrs for 3 days and measured by H and E staining-based assay; type: organism-based; settings: in vivo, 72 h, dose 2.5-5 mg/kg, time 3 day
Staphylococcus aureus [17] = experiment: Induction of oxidative stress in Staphylococcus aureus assessed as increase in intracellular ROS level at 1 to 8 times MIC measured after 6 hrs by DCFH-DA staining method; type: functional, organism-based
Staphylococcus aureus [18] = experiment: Antibacterial activity against Staphylococcus aureus assessed as deformed and shriveled cell structures at 1 to 2 ug/ml measured by SEM analysis; type: functional, organism-based; settings: dose 1-2 µg/ml
Escherichia coli [19] = experiment: Antibacterial activity against Escherichia coli ATCC 25922 measured by Muller-Hinton broth based microdilution assay; type: functional
Staphylococcus aureus [20] = experiment: Disruption of membrane integrity in Staphylococcus aureus at 8 times MIC by calcein-AM/PI staining based fluorescence analysis; type: functional, organism-based
Staphylococcus aureus [21] = experiment: Antibacterial activity against Staphylococcus aureus assessed as lysed debris at 1 to 2 ug/ml measured by SEM analysis; type: functional, organism-based; settings: dose 1-2 µg/ml
Staphylococcus aureus [22] = experiment: Antibacterial activity against Staphylococcus aureus ATCC 25923 measured by Muller-Hinton broth based microdilution assay; type: functional
Staphylococcus aureus [23] = experiment: Antibacterial activity against Staphylococcus aureus ATCC 29213 measured by Muller-Hinton broth based microdilution assay; type: functional
Klebsiella pneumoniae = experiment: Antibacterial activity against Klebsiella pneumoniae measured by Muller-Hinton broth based microdilution assay; type: functional
[24] = Selectivity ratio of HC50 for hemolytic activity in human RBC to MIC for antibacterial activity against Staphylococcus aureus; type: toxicity; settings: human red blood cells (erythrocytes)
Staphylococcus aureus [25] = experiment: Inhibition of biofilm formation in Staphylococcus aureus at 1 to 8 times MIC measured after 24 hrs by crystal violet staining method; type: functional, organism-based
Staphylococcus aureus [26] = experiment: Antibiofilm activity in Staphylococcus aureus at 1 to 8 times MIC measured by Alamar blue assay; type: functional, organism-based
Escherichia coli [27] = experiment: Antibacterial activity against Escherichia coli measured by Muller-Hinton broth based microdilution assay; type: functional
Staphylococcus aureus [28] = experiment: Induction of oxidative stress in Staphylococcus aureus assessed as decrease in GSH activity at 1 to 8 times MIC measured after 6 hrs by Ellman's assay; type: functional, organism-based
L929 = experiment: Cytotoxicity against mouse L929 cells assessed as effect on cell growth at 0.25 to 0.5 ug/ml incubated for 24 hrs by MTT assay; type: toxicity, cell-based; settings: l929, 24 h, dose 0.25-0.5 µg/ml
[29] = Toxicity in systemic sepsis mouse model infected with Staphylococcus aureus assessed as effect on spleen morphology at 2.5 to 5 mg/kg administered every 12 hrs for 3 days and measured by H and E staining-based assay; type: organism-based; settings: in vivo, 72 h, dose 2.5-5 mg/kg, time 3 day
[30] = Toxicity in systemic sepsis mouse model infected with Staphylococcus aureus assessed as effect on kidney morphology at 2.5 to 5 mg/kg administered every 12 hrs for 3 days and measured by H and E staining-based assay; type: organism-based; settings: in vivo, 72 h, dose 2.5-5 mg/kg, time 3 day
Escherichia coli [31] = experiment: Antibacterial activity against Escherichia coli assessed as lysed debris at 8 to 16 ug/ml measured by SEM analysis; type: functional, organism-based; settings: dose 8-16 µg/ml
Staphylococcus aureus [32] = experiment: Bactericidal activity against Staphylococcus aureus assessed as reduction in number of colonies at 0.5 to 2 times MIC measured within 6 hrs by time-kill assay; type: functional, organism-based

CCn1c2ccccc2c2cc(/C=N/Nc3ccc4c5c(cccc35)C(=O)N(C(CO)CO)C4=O)ccc21 gave an MIC (Pseudomonas aeruginosa [1]) of 2 µg/mL (≈ 3.95 µM), an Activity (Staphylococcus aureus [2]) of 70% and an MIC (Staphylococcus aureus [3]) of 64 µg/mL (≈ 126 µM). The MIC (Acinetobacter baumannii) was 64 µg/mL (≈ 126 µM), the HC50 at 1 h [4] was 722 µg/mL and the inhibition (Staphylococcus aureus [5]) was “Active”. For the same compound, the Activity (Staphylococcus aureus [6]) was “Active”, the Activity (Staphylococcus aureus [7]) was “Active” and the Activity (Staphylococcus aureus [8]) was “Active”. For the same compound, the MIC (Staphylococcus aureus [9]) was 0.25 µg/mL (≈ 0.494 µM), the MIC (Enterococcus faecalis) was 8 µg/mL (≈ 15.8 µM) and the Activity (Staphylococcus aureus [10]) was “Active”. For the same compound, the Activity (Escherichia coli [11]) was “Active”, the Activity (Staphylococcus aureus [12]) was “Active” and the Activity (Staphylococcus aureus [13]) was “Active”. The MIC (Pseudomonas aeruginosa [14]) was 64 µg/mL (≈ 126 µM), the hemolysis at 1 h [15] was < 5% and the Activity [16] was “Non-Toxic”. For the same compound, the Activity (Staphylococcus aureus [17]) was “Active”, the Activity (Staphylococcus aureus [18]) was “Active” and the MIC (Escherichia coli [19]) was 128 µg/mL (≈ 253 µM). For the same compound, the Activity (Staphylococcus aureus [20]) was “Active”, the Activity (Staphylococcus aureus [21]) was “Active” and the MIC (Staphylococcus aureus [22]) was 2 µg/mL (≈ 3.95 µM). It also gave an MIC (Staphylococcus aureus [23]) of 0.5 µg/mL (≈ 0.987 µM), an MIC (Klebsiella pneumoniae) of 8 µg/mL (≈ 15.8 µM) and a selectivity ratio [24] of 2890. For the same compound, the inhibition (Staphylococcus aureus [25]) was “Active”, the Activity (Staphylococcus aureus [26]) was “Active” and the MIC (Escherichia coli [27]) was 8 µg/mL (≈ 15.8 µM). The Activity (Staphylococcus aureus [28]) was “Active”, the Activity (L929) was “Non-Toxic” and the Activity [29] was “Non-Toxic”. The Activity [30] was “Non-Toxic”, the Activity (Escherichia coli [31]) was “Active” and the Activity (Staphylococcus aureus [32]) was “Active”.
